Data on 2 compounds can be found in patent US10421778B2, “Isoform-selective lysine deacetylase inhibitors” (WASHINGTON UNIVERSITY, priority 2015, dated 2019).

In one assay the test system is KDAC1, KDAC2, and KDAC3. The following applies: background statement; cited from earlier work.
Assay [1] deals with Resting CD4+ T cells isolated from a patient fully suppressed on antiretroviral therapy. Description: Reactivation of virus in resting CD4+ T cells of a suppressed patient (HIV-1 p24 ELISA). Type of assay: cell-based. The following applies: 1 μM, 48 hours, then co-culture with MOLT4/CCR5 cells 7 days; preliminary data. From the text:
Cells were washed and co-cultured with MOLT4/CCR5 cells for 7 days. R Cellular supernatants were collected for HIV-1 p24 ELISA. N.R—non reactive.
For orientation: In an ELISA, binding on a coated surface is turned into a signal by an enzyme label.

A further assay addresses T1, recombinant human KDAC8 (Homo sapiens, UniProt Q9BY41).
T1 construct: purchased BPS Bioscience
T1 sequence (Q9BY41 1-377): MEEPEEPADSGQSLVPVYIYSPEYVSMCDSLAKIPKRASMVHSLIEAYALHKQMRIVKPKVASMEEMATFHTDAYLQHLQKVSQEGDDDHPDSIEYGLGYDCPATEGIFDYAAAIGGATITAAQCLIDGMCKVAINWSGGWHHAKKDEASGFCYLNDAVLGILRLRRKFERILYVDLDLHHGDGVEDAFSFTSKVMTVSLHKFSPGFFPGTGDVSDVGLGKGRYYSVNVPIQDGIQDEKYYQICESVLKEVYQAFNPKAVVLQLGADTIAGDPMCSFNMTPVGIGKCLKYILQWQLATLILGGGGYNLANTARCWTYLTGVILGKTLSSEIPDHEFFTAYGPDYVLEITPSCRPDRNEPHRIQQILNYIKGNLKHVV
Description: KDAC inhibition assay, Caliper EZ Reader II. It counts as biochemical.

Another assay concerns the target T2, recombinant human KDAC1 (Homo sapiens, UniProt Q13547).
T2 construct: purchased BPS Bioscience
Description: KDAC inhibition assay, Caliper EZ Reader II. It counts as biochemical.

Assay [2] relates to JLAT 10.6 cells, which have HIV-1-GFP stably integrated. Description: Reactivation of HIV from latency in JLAT 10.6 cells (GFP, FACS). Type of assay: cell-based. The following applies: J-Lat 10.6, 24 h, read-out: EC50 in reactivating HIV from latency. As to the method: JLAT 10.6 cells, which have HIV-1-GFP stably integrated, were incubated with the indicated compounds for 24 hours. […] Upon stimulation with an appropriate agent, they can produce HIV as measured by GFP recognition with fluorescent-activated cell sorting (FACS). Cells were fixed and FACS performed for GFP as a surrogate for HIV production using TNF alpha as positive control. Largazoles are SDL256, JMF 1080, and SDL148. Relative activation is normalized to TNF alpha.

The next assay deals with T3, recombinant human KDAC3 (Homo sapiens, UniProt O15379).
T3 construct: purchased BPS Bioscience
T3 sequence (O15379 whole entry): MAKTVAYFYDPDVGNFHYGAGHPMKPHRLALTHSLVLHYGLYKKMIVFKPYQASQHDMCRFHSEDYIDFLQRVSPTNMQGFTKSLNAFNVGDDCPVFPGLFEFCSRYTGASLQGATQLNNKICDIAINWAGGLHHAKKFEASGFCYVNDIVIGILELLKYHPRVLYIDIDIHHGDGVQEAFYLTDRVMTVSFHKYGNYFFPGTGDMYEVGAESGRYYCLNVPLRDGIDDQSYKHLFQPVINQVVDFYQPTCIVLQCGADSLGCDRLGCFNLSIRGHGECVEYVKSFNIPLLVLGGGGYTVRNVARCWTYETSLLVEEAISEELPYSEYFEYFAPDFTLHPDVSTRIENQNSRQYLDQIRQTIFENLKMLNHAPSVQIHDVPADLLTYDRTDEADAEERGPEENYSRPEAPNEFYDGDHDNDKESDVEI
T3 sequence (Q9Y618 395-489 partner limits assumed): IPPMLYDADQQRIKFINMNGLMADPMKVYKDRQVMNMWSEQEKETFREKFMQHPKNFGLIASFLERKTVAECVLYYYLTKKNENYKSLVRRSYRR
Description: KDAC inhibition assay, Caliper EZ Reader II. Type of assay: biochemical.

In another assay the target is T4, recombinant human KDAC6 (Homo sapiens, UniProt Q9UBN7).
T4 construct: purchased BPS Bioscience
T4 sequence (Q9UBN7 1-1215): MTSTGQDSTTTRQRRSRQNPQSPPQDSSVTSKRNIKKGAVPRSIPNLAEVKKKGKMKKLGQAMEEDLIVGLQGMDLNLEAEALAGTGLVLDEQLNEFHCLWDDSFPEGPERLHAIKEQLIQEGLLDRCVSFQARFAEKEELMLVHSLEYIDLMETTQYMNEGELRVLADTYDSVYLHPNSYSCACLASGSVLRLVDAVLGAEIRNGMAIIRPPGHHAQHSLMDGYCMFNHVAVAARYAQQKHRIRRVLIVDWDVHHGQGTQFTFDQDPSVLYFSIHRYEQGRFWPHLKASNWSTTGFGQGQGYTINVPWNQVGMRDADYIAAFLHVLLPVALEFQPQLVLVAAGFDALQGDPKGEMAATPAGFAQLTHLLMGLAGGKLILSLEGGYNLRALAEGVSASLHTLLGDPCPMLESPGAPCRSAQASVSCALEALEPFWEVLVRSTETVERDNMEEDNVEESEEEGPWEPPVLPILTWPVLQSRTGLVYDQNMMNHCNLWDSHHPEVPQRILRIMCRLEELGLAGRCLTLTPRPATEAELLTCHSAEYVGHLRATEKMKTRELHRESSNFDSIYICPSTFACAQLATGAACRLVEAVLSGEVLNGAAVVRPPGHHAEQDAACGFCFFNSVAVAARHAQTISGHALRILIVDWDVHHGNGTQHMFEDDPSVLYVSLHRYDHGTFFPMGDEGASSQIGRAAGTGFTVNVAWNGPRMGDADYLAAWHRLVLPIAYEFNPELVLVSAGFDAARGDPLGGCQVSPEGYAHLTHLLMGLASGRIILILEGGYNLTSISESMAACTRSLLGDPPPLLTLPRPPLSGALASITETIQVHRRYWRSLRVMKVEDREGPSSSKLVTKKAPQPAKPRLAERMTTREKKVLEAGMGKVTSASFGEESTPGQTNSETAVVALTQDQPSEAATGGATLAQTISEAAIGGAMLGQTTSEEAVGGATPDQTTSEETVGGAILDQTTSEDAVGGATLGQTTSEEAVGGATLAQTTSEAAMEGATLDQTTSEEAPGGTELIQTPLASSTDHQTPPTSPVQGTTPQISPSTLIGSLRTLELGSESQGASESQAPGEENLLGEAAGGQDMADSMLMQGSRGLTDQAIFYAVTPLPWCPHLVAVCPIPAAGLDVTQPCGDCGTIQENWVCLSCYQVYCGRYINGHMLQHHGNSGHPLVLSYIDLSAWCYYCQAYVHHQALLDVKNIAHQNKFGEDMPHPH
Description: KDAC inhibition assay, Caliper EZ Reader II. Type of assay: biochemical. The following applies: 10-point dose curve from 30 μM.

Where two headings read alike, the source gives them in different places. A value given as a limit tells only on which side of the number the result lay.

T2 sequence (Q13547 whole entry): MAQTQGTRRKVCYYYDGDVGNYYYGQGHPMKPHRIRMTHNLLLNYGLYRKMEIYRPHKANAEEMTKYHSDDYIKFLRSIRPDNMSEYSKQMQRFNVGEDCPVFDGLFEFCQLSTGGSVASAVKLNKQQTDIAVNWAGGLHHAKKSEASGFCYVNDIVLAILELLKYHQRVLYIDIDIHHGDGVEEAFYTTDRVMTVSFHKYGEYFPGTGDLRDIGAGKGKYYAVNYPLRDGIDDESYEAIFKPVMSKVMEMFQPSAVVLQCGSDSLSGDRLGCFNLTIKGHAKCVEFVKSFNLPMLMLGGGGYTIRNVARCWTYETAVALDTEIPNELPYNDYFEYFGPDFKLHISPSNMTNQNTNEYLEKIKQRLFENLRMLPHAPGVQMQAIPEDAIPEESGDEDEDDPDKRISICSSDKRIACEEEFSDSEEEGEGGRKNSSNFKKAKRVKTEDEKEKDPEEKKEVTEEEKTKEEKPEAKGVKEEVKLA

As usually defined, the inhibition is how much of the control response was suppressed. Broadly, the EC50 is the concentration at which the effect is half-maximal. With `CCCCCCCC(=O)SCC/C=C/[C@@H]1CC(=O)NCc2nc(cs2)C2=N[C@@](C)(CS2)C(=O)N[C@@H](C(C)C)C(=O)O1` [Largazole, largazole], in the assay with KDAC1, KDAC2, and KDAC3, the “potency against KDAC1, KDAC2, and KDAC3” value is listed as “picomolar range”. For the same compound, the “reactivation of virus from latency, HIV-1 p24 ELISA in culture supernatants” value in assay [1] was “able to reactivate virus from latency”. For the same compound, the inhibition at 30 µM at recombinant human KDAC8 is 28%. Also, the IC50 on recombinant human KDAC1 was determined as 2330 nM. For the same compound, the EC50 in assay [2] was found to be 150 nM.

Consider `CC(=O)SCC/C=C/[C@@H]1CC(=O)NCc2cc(ccn2)C2=N[C@@](C)(CS2)C(=O)N[C@@H](C(C)C)C(=O)O1` [SD-L-256, reference compound], for which the IC50 is 470 nM at recombinant human KDAC3 (10-point dose curve from 30 μM, read-out: KDAC Inhibition Activity (IC50) KDAC3); 479 nM at recombinant human KDAC3 (read-out: KDAC Inhibition Activity (pIC50) KDAC3 (converted)); 1610 nM at recombinant human KDAC6; > 30000 nM on recombinant human KDAC8 (10-point dose curve from 30 μM); 3480 nM at recombinant human KDAC1 (10-point dose curve from 30 μM). For the same compound, the inhibition at 30 µM at recombinant human KDAC8 was 39%. Moreover, in assay [2], the EC50 is 1600 nM.
